# In PubChem BioAssay AID264 (DTP/NCI, 2004):
# Records with an inconclusive call do not appear.
# System: nude mice, LX-1 lung xenograft intrarenal, tumor weight T/C
# Test: NCI In Vivo Anticancer Drug Screen. Data for tumor model Human Lung LX-1 Xenograft (intrarenal inoculation) in NU/NU Swiss (nude) mice
# Conditions: endpoint: mean tumor weight change, higher = larger tumour
# In short: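 Antitumor effect is expressed as a ratio: the mean tumor measurement of the drug-treated group relative to that of the vehicle-dosed control group.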
# [1] = dose: 100.0 mg/kg/injection, schedule: Q04DX003 (sc), vehicle: saline with Tween-80
# [2] = dose: 200.0 mg/kg/injection, schedule: Q04DX003 (sc), vehicle: saline with Tween-80
# [3] = dose: 50.0 mg/kg/injection, schedule: Q01DX010 (sc), vehicle: Klucel (hydroxypropylcellulose) (HPC)
# [4] = dose: 100.0 mg/kg/injection, schedule: Q01DX010 (sc), vehicle: Klucel (hydroxypropylcellulose) (HPC)
# [5] = dose: 200.0 mg/kg/injection, schedule: Q01DX010 (sc), vehicle: Klucel (hydroxypropylcellulose) (HPC)
# [6] = dose: 12.5 mg/kg/injection, schedule: Q01DX010 (sc), vehicle: saline
# [7] = dose: 75.0 mg/kg/injection, schedule: Q04DX003 (sc), vehicle: Klucel (hydroxypropylcellulose) (HPC)
# [8] = dose: 150.0 mg/kg/injection, schedule: Q04DX003 (sc), vehicle: Klucel (hydroxypropylcellulose) (HPC)
structure (smiles),measurement,setting,value
COc1cccc2c1C(=O)c1c(O)c3c(c(O)c1C2=O)C[C@@](O)(C(C)=O)C[C@@H]3OC1CC(N(C)C)C(O)C(C)O1 (stereo partly drawn),T/C,"dose: 2.0 mg/kg/injection, schedule: Q01DX010 (sc), vehicle: water",200 % of control
same,T/C,"dose: 4.0 mg/kg/injection, schedule: Q01DX010 (sc), vehicle: water",80 % of control
same,T/C,"dose: 6.0 mg/kg/injection, schedule: Q04DX003 (sc), vehicle: water",59 % of control
same,T/C,"dose: 12.0 mg/kg/injection, schedule: Q04DX003 (sc), vehicle: water",88 % of control
Cc1c2cc(Cl)c3ccccc3c2c[n+]2ccccc12,T/C,"dose: 300.0 mg/kg/injection, schedule: Q04DX003 (sc), vehicle: saline with Tween-80",66 % of control
same,T/C,"dose: 600.0 mg/kg/injection, schedule: Q04DX003 (sc), vehicle: saline with Tween-80",81 % of control
same,T/C,"dose: 1200.0 mg/kg/injection, schedule: Q04DX003 (sc), vehicle: saline with Tween-80",70 % of control
Cc1cc2cc3cc(C)c(N)cc3nc2cc1N,T/C,[1],77 % of control
same,T/C,[2],51 % of control
same,T/C,"dose: 400.0 mg/kg/injection, schedule: Q04DX003 (sc), vehicle: saline with Tween-80",63 % of control
same,T/C,"dose: 800.0 mg/kg/injection, schedule: Q04DX003 (sc), vehicle: saline with Tween-80",95 % of control
C[C@]12CC[C@H]3[C@@H](CCC4=C[C@@H](OC5OCC(OC6OC(CO)C(O)C(O)C6O)C(O)C5O)CC[C@@]43C=O)[C@@]1(O)CCC2C1=CC(=O)OC1 (stereo partly drawn),T/C,"dose: 7.5 mg/kg/injection, schedule: Q04DX003 (sc), vehicle: Klucel (hydroxypropylcellulose) (HPC)",77 % of control
same,T/C,"dose: 30.0 mg/kg/injection, schedule: Q04DX003 (sc), vehicle: Klucel (hydroxypropylcellulose) (HPC)",79 % of control
same,T/C,"dose: 60.0 mg/kg/injection, schedule: Q04DX003 (sc), vehicle: Klucel (hydroxypropylcellulose) (HPC)",79 % of control
CC(=O)OCC1OC([S-])C(OC(C)=O)C(OC(C)=O)C1OC(C)=O.CC[PH+](CC)CC.CC[PH+](CC)CC.[Au].[Au] (stereo not drawn),T/C,"dose: 3.12 mg/kg/injection, schedule: Q04DX003 (sc), vehicle: Klucel (hydroxypropylcellulose) (HPC)",110 % of control
same,T/C,"dose: 6.25 mg/kg/injection, schedule: Q04DX003 (sc), vehicle: Klucel (hydroxypropylcellulose) (HPC)",88 % of control
same,T/C,"dose: 12.5 mg/kg/injection, schedule: Q04DX003 (sc), vehicle: Klucel (hydroxypropylcellulose) (HPC)",75 % of control
COCC1OC2OC3C(COC)OC(OC4C(COC)OC(OC5C(COC)OC(OC6C(COC)OC(OC7C(COC)OC(OC8C(COC)OC(OC1C(O)C2O)C(O)C8O)C(O)C7O)C(O)C6O)C(O)C5O)C(O)C4O)C(O)C3O (stereo not drawn) (tested in a mixture with another compound),T/C,"dose: 200.0 mg/kg/injection, schedule: Q04DX003 (sc), vehicle: Klucel (hydroxypropylcellulose) (HPC)",156 % of control
Nc1ncnc2c1ccn2C1OC(CO)C(O)C1O (stereo not drawn),T/C,"dose: 1.0 mg/kg/injection, schedule: Q01DX010 (sc), vehicle: Klucel (hydroxypropylcellulose) (HPC)",85 % of control
same,T/C,"dose: 2.0 mg/kg/injection, schedule: Q01DX010 (sc), vehicle: Klucel (hydroxypropylcellulose) (HPC)",101 % of control
same,T/C,"dose: 4.0 mg/kg/injection, schedule: Q01DX010 (sc), vehicle: Klucel (hydroxypropylcellulose) (HPC)",53 % of control
CCN(CC)CCOC(=O)Cc1cccc2c(=O)cc(-c3ccccc3)oc12,T/C,[1],112 % of control
same,T/C,[2],44 % of control
CC1CN=C(c2ccc(NC(=O)c3ccc(C(=O)Nc4ccc(C5=NCC(C)N5)cc4)cc3)cc2)N1 (stereo not drawn),T/C,[3],213 % of control
same,T/C,[4],68 % of control
same,T/C,[5],94 % of control
same,T/C,"dose: 400.0 mg/kg/injection, schedule: Q01DX010 (sc), vehicle: Klucel (hydroxypropylcellulose) (HPC)",84 % of control
COC1OC(CO)C(O)C(NC(=O)N(C)N=O)C1O (stereo not drawn),T/C,"dose: 800.0 mg/kg/injection, schedule: Q04DX003 (sc), vehicle: saline",31 % of control
same,T/C,"dose: 900.0 mg/kg/injection, schedule: Q04DX003 (sc), vehicle: saline",-100 % of control
O=c1n(CC2CO2)c(=O)n(CC2CO2)c(=O)n1CC1CO1 (stereo not drawn),T/C,[6],65 % of control
same,T/C,"dose: 25.0 mg/kg/injection, schedule: Q01DX010 (sc), vehicle: saline",56 % of control
same,T/C,"dose: 25.0 mg/kg/injection, schedule: Q04DX003 (sc), vehicle: saline with Tween-80",94 % of control
same,T/C,"dose: 50.0 mg/kg/injection, schedule: Q04DX003 (sc), vehicle: saline with Tween-80",100 % of control
Cc1ccc2nc(-c3ccc4nc(-c5ccc(N=Nc6ccc(-c7nc8ccc(-c9nc%10ccc(C)c(S(=O)(=O)O)c%10s9)cc8s7)cc6)cc5)sc4c3)sc2c1S(=O)(=O)O,T/C,"dose: 100.0 mg/kg/injection, schedule: Q04DX003 (sc), vehicle: suspension in saline",76 % of control
same,T/C,"dose: 400.0 mg/kg/injection, schedule: Q04DX003 (sc), vehicle: suspension in saline",64 % of control
same,T/C,"dose: 800.0 mg/kg/injection, schedule: Q04DX003 (sc), vehicle: suspension in saline",101 % of control
C=C1CC2(OC1=O)C(=O)N(C)c1ccc(I)cc12 (stereo not drawn),T/C,"dose: 150.0 mg/kg/injection, schedule: Q04DX003 (sc), vehicle: suspension in saline",68 % of control
same,T/C,"dose: 300.0 mg/kg/injection, schedule: Q04DX003 (sc), vehicle: suspension in saline",34 % of control
same,T/C,"dose: 600.0 mg/kg/injection, schedule: Q04DX003 (sc), vehicle: suspension in saline",34 % of control
same,T/C,"dose: 1200.0 mg/kg/injection, schedule: Q04DX003 (sc), vehicle: suspension in saline",62 % of control
O=C(N/N=C\c1cc(Br)cc(Br)c1O)N/N=C/c1cc(Br)cc(Br)c1O,T/C,"dose: 50.0 mg/kg/injection, schedule: Q01DX010 (sc), vehicle: saline with Tween-80",373 % of control
same,T/C,"dose: 800.0 mg/kg/injection, schedule: Q01DX010 (sc), vehicle: saline with Tween-80",67 % of control
O=C1C=CC(=O)N1c1ccc(Cl)cc1,T/C,"dose: 37.5 mg/kg/injection, schedule: Q04DX003 (sc), vehicle: Klucel (hydroxypropylcellulose) (HPC)",116 % of control
same,T/C,[7],123 % of control
same,T/C,[8],85 % of control
Cn1cc(C2NC(=O)c3ccccc3N2)c2ccccc21 (stereo not drawn),T/C,"dose: 300.0 mg/kg/injection, schedule: Q04DX003 (sc), vehicle: Klucel (hydroxypropylcellulose) (HPC)",31 % of control
same,T/C,"dose: 600.0 mg/kg/injection, schedule: Q04DX003 (sc), vehicle: Klucel (hydroxypropylcellulose) (HPC)",32 % of control
same,T/C,"dose: 1200.0 mg/kg/injection, schedule: Q04DX003 (sc), vehicle: Klucel (hydroxypropylcellulose) (HPC)",-36 % of control
CCC(C)Nc1ccc(N)cc1 (stereo not drawn),T/C,"dose: 9.0 mg/kg/injection, schedule: Q04DX003 (sc), vehicle: Klucel (hydroxypropylcellulose) (HPC)",80 % of control
same,T/C,"dose: 18.0 mg/kg/injection, schedule: Q04DX003 (sc), vehicle: Klucel (hydroxypropylcellulose) (HPC)",104 % of control
Nc1nncs1,T/C,[6],104 % of control
Nc1n[nH]c(N)n1,T/C,"dose: 200.0 mg/kg/injection, schedule: Q01DX010 (sc), vehicle: saline",109 % of control
same,T/C,"dose: 400.0 mg/kg/injection, schedule: Q01DX010 (sc), vehicle: saline",106 % of control
same,T/C,"dose: 800.0 mg/kg/injection, schedule: Q01DX010 (sc), vehicle: saline",84 % of control
NC1(C(=O)O)CCCC1,T/C,"dose: 12.0 mg/kg/injection, schedule: Q01DX010 (sc), vehicle: saline",94 % of control
same,T/C,"dose: 24.0 mg/kg/injection, schedule: Q01DX010 (sc), vehicle: saline",66 % of control
same,T/C,"dose: 48.0 mg/kg/injection, schedule: Q01DX010 (sc), vehicle: saline",57 % of control
same,T/C,"dose: 50.0 mg/kg/injection, schedule: Q01DX010 (sc), vehicle: saline",32 % of control
same,T/C,"dose: 96.0 mg/kg/injection, schedule: Q01DX010 (sc), vehicle: saline",29 % of control
Nc1ncnc2c1ncn2C1C=C(CO)C(O)C1O (stereo not drawn),T/C,"dose: 3.75 mg/kg/injection, schedule: Q04DX003 (sc), vehicle: saline",49 % of control
same,T/C,"dose: 7.5 mg/kg/injection, schedule: Q04DX003 (sc), vehicle: saline",70 % of control
same,T/C,"dose: 15.0 mg/kg/injection, schedule: Q04DX003 (sc), vehicle: saline",58 % of control
CCCC(=O)OCc1cc(=O)n(C)c2c3c4c(cc12)c(C)cc(=O)n4CO3,T/C,"dose: 25.0 mg/kg/injection, schedule: Q01DX010 (sc), vehicle: Klucel (hydroxypropylcellulose) (HPC)",89 % of control
same,T/C,[3],70 % of control
same,T/C,[4],48 % of control
same,T/C,[5],63 % of control
CCN(CC)c1ccc2cc(-c3nc4ccccc4n3C)c(=O)oc2c1,T/C,[7],105 % of control
same,T/C,[8],81 % of control
